According to article PMC9019904, “AD Informer Set: Chemical tools to facilitate Alzheimer's disease drug discovery” (Alzheimer's & Dementia : Translational Research & Clinical …, 2022):

Columns and labels:
[1] = tested on: BV2 (mouse microglia) cell line; experiment: pHrodo-myelin phagocytosis/cell viability high content imaging assay: viability (cell count, nuclear area, nuclear intensity); conditions: for 1. Cell count (% control) / 2. Nuclear Area (% Control) / 3. Nuclear DNA Intensity (% control): 48 hours treatment
Outline: (§1)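 10 μM single dose, 48 h total; pHrodo-myelin present final 20 h. Read-out: automated imaging, total cell count/well, mean nuclear intensity/cell. n=2, normalized to untreated wells, % control.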

[2] = tested on: HMC3 (human microglia) cell line; experiment: as above; conditions: for 1. Cell count (% control) / 2. Nuclear Area (% Control) / 3. Nuclear DNA Intensity (% control): 48 hours treatment
Outline: as §1

[3] = tested on: BV2 (mouse microglia) cell line; experiment: pHrodo-myelin phagocytosis/cell viability high content imaging assay: phagocytosis signal; format: cell-based
Outline: (§2)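 HCI read-out ~22 h post pHrodo-myelin; phagocytosis + viability simultaneously; 3 parameters extracted; intensity up = early apoptosis, down = later apoptosis.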

[4] = tested on: HMC3 (human microglia) cell line; experiment: as above; format: cell-based
Outline: as §2

[5] = BV2 cells, 10 uM compound, 48 hours treatment, pHrodo-myelin final 20 hours
[6] = HMC3 cells, 10 uM compound, 48 hours treatment, pHrodo-myelin final 20 hours
[7] = BV2, compound 10 uM, pHrodo-myelin
[8] = HMC3, compound 10 uM, pHrodo-myelin

CNC(=O)[C@H](Cc1c[nH]c2ccccc12)NC(=O)[C@@H](CC(=O)NO)CC(C)C [UNC10302858A]
1. Cell count (% control) ([1]; BV2 cells, 10 uM compound): 101.6 % control | 2. Nuclear Area (% Control) ([1]; BV2 cells, 10 uM compound): 102.8 % Control | 3. Nuclear DNA Intensity (% control) ([1]; BV2 cells, 10 uM compound): 98.5 % control | 1. Cell count (% control) ([2]; HMC3 cells, 10 uM compound): 86.0 % control | 2. Nuclear Area (% Control) ([2]; HMC3 cells, 10 uM compound): 95.1 % Control | 3. Nuclear DNA Intensity (% control) ([2]; HMC3 cells, 10 uM compound): 101.4 % control | 4. Phagocytosis (% control) [3, 5]: 100.0 % control | 4. Phagocytosis (% control) [4, 6]: 82.4 % control

CCCN(CC1CC1)c1nc(C)nc(Nc2c(Cl)cc(Cl)cc2Cl)c1Cl.Cl [UNC10303155A]
1. Cell count (% control) ([1]; BV2, compound 10 uM): 40.3 % control | 2. Nuclear Area (% Control) ([1]; BV2, compound 10 uM): 117.9 % Control | 3. Nuclear DNA Intensity (% control) ([1]; BV2, compound 10 uM): 98.5 % control | 1. Cell count (% control) ([2]; HMC3, compound 10 uM): 120.1 % control | 2. Nuclear Area (% Control) ([2]; HMC3, compound 10 uM): 96.1 % Control | 3. Nuclear DNA Intensity (% control) ([2]; HMC3, compound 10 uM): 105.3 % control | 4. Phagocytosis (% control) [3, 7]: 323.0 % control | 4. Phagocytosis (% control) [4, 8]: 86.3 % control

CC(C)CCC[C@@H](C)[C@H]1CC[C@H]2[C@@H]3CC[C@H]4C[C@H](N)CC[C@]4(C)[C@H]3CC[C@]12C [UNC10302970A]
1. Cell count (% control) ([1]; BV2 cells, 10 uM compound): 18.3 % control | 2. Nuclear Area (% Control) ([1]; BV2 cells, 10 uM compound): 108.5 % Control | 3. Nuclear DNA Intensity (% control) ([1]; BV2 cells, 10 uM compound): 93.1 % control | 1. Cell count (% control) ([2]; HMC3 cells, 10 uM compound): 97.2 % control | 2. Nuclear Area (% Control) ([2]; HMC3 cells, 10 uM compound): 81.8 % Control | 3. Nuclear DNA Intensity (% control) ([2]; HMC3 cells, 10 uM compound): 134.0 % control | 4. Phagocytosis (% control) [3, 5]: 160.9 % control | 4. Phagocytosis (% control) [4, 6]: 40.9 % control

Cl.O=C(O)Cc1cccc(OCCCN(Cc2cccc(C(F)(F)F)c2Cl)CC(c2ccccc2)c2ccccc2)c1 [UNC10302974A]
1. Cell count (% control) ([1]; BV2 cells, 10 uM compound): 123.1 % control | 2. Nuclear Area (% Control) ([1]; BV2 cells, 10 uM compound): 107.6 % Control | 3. Nuclear DNA Intensity (% control) ([1]; BV2 cells, 10 uM compound): 102.2 % control | 1. Cell count (% control) ([2]; HMC3 cells, 10 uM compound): 138.8 % control | 2. Nuclear Area (% Control) ([2]; HMC3 cells, 10 uM compound): 100.4 % Control | 3. Nuclear DNA Intensity (% control) ([2]; HMC3 cells, 10 uM compound): 95.2 % control | 4. Phagocytosis (% control) [3, 5]: 136.8 % control | 4. Phagocytosis (% control) [4, 6]: 78.3 % control

Cc1ccc(-n2nc(C(C)(C)C)cc2NC(=O)Nc2ccc(OCCN3CCOCC3)c3ccccc23)cc1 [UNC10225354A]
1. Cell count (% control) ([1]; BV2 cells, 10 uM compound): 127.7 % control | 2. Nuclear Area (% Control) ([1]; BV2 cells, 10 uM compound): 105.8 % Control | 3. Nuclear DNA Intensity (% control) ([1]; BV2 cells, 10 uM compound): 105.3 % control | 1. Cell count (% control) ([2]; HMC3 cells, 10 uM compound): 144.2 % control | 2. Nuclear Area (% Control) ([2]; HMC3 cells, 10 uM compound): 99.1 % Control | 3. Nuclear DNA Intensity (% control) ([2]; HMC3 cells, 10 uM compound): 93.2 % control | 4. Phagocytosis (% control) [3, 5]: 236.7 % control | 4. Phagocytosis (% control) [4, 6]: 109.7 % control

C[C@H](CCCC(C)(C)O)[C@H]1CC[C@H]2[C@@H]3CC=C4C[C@@H](O)CC[C@]4(C)[C@H]3CC[C@]12C [UNC10302834A]
1. Cell count (% control) ([1]; BV2, compound 10 uM): 75.6 % control | 2. Nuclear Area (% Control) ([1]; BV2, compound 10 uM): 103.0 % Control | 3. Nuclear DNA Intensity (% control) ([1]; BV2, compound 10 uM): 136.7 % control | 1. Cell count (% control) ([2]; HMC3, compound 10 uM): 99.4 % control | 2. Nuclear Area (% Control) ([2]; HMC3, compound 10 uM): 81.6 % Control | 3. Nuclear DNA Intensity (% control) ([2]; HMC3, compound 10 uM): 144.3 % control | 4. Phagocytosis (% control) [3, 7]: 50.2 % control | 4. Phagocytosis (% control) [4, 8]: 45.5 % control

C[C@H]1Oc2cc(cnc2N)-c2c(nn(C)c2C#N)CN(C)C(=O)c2ccc(F)cc21 [UNC10244898A]
1. Cell count (% control) ([1]; BV2 cells, 10 uM compound): 117.2 % control | 2. Nuclear Area (% Control) ([1]; BV2 cells, 10 uM compound): 102.7 % Control | 3. Nuclear DNA Intensity (% control) ([1]; BV2 cells, 10 uM compound): 110.1 % control | 1. Cell count (% control) ([2]; HMC3 cells, 10 uM compound): 127.2 % control | 2. Nuclear Area (% Control) ([2]; HMC3 cells, 10 uM compound): 110.3 % Control | 3. Nuclear DNA Intensity (% control) ([2]; HMC3 cells, 10 uM compound): 89.2 % control | 4. Phagocytosis (% control) [3, 5]: 200.3 % control | 4. Phagocytosis (% control) [4, 6]: 37.8 % control

COc1cc(N2CCC(N3CCN(C)CC3)CC2)ccc1Nc1ncc(Cl)c(Nc2ccccc2P(C)(C)=O)n1 [UNC10244797A]
1. Cell count (% control) ([1]; BV2, compound 10 uM): 44.4 % control | 2. Nuclear Area (% Control) ([1]; BV2, compound 10 uM): 109.2 % Control | 3. Nuclear DNA Intensity (% control) ([1]; BV2, compound 10 uM): 111.1 % control | 1. Cell count (% control) ([2]; HMC3, compound 10 uM): 103.9 % control | 2. Nuclear Area (% Control) ([2]; HMC3, compound 10 uM): 120.2 % Control | 3. Nuclear DNA Intensity (% control) ([2]; HMC3, compound 10 uM): 97.2 % control | 4. Phagocytosis (% control) [3, 7]: 236.8 % control | 4. Phagocytosis (% control) [4, 8]: 99.4 % control

C=C1C(=O)[C@]23[C@H](O)[C@H]1CC[C@H]2[C@@]12CO[C@]3(O)[C@@H](O)[C@@H]1C(C)(C)CC[C@@H]2O [Oridonin]
Mouse microglial cytotoxicity at 10 μM (<70% control) ([1]; 10 μM, BV2): Y (The compound was found to be cytotoxic (cell count threshold: <70% control) when murine immortalized microglial cells were dosed at 10 μM (Y: yes)) | Human microglial cytotoxicity at 10 μM (<70% control) ([2]; 10 μM, HMC3): Y (The compound was found to be cytotoxic (cell count threshold: <70% control) when human immortalized microglial cells were dosed at 10 μM (Y: yes)) | Stimulation of mouse microglial phagocytosis at 10 μM (>150% control) ([3]; 10 μM, BV2): Y (The compound was found to stimulate phagocytosis (response threshold: >150% control) when murine immortalized microglial cells were dosed at 10 μM (Y: yes)) | Inhibition of human microglial phagocytosis at 10 μM (<70% control) ([4]; 10 μM, HMC3): Y (The compound was found to inhibit phagocytosis (response threshold: <70% control) when human immortalized microglial cells were dosed at 10 μM (Y: yes))

O=C(Nc1ccc([N+](=O)[O-])cc1Cl)c1cc(Cl)ccc1O [UNC10302856A]
1. Cell count (% control) ([1]; BV2 cells, 10 uM compound): 132.8 % control | 2. Nuclear Area (% Control) ([1]; BV2 cells, 10 uM compound): 104.4 % Control | 3. Nuclear DNA Intensity (% control) ([1]; BV2 cells, 10 uM compound): 103.0 % control | 1. Cell count (% control) ([2]; HMC3 cells, 10 uM compound): 150.0 % control | 2. Nuclear Area (% Control) ([2]; HMC3 cells, 10 uM compound): 101.6 % Control | 3. Nuclear DNA Intensity (% control) ([2]; HMC3 cells, 10 uM compound): 94.0 % control | 4. Phagocytosis (% control) [3, 5]: 133.2 % control | 4. Phagocytosis (% control) [4, 6]: 50.1 % control

CCCCCOc1cc2c(cc1-c1cc(/C=C/C(=O)O)ccc1O)C(C)(C)CCC2(C)C [UNC10302971A]
1. Cell count (% control) ([1]; BV2 cells, 10 uM compound): 104.0 % control | 2. Nuclear Area (% Control) ([1]; BV2 cells, 10 uM compound): 103.5 % Control | 3. Nuclear DNA Intensity (% control) ([1]; BV2 cells, 10 uM compound): 104.7 % control | 1. Cell count (% control) ([2]; HMC3 cells, 10 uM compound): 103.0 % control | 2. Nuclear Area (% Control) ([2]; HMC3 cells, 10 uM compound): 101.2 % Control | 3. Nuclear DNA Intensity (% control) ([2]; HMC3 cells, 10 uM compound): 101.8 % control | 4. Phagocytosis (% control) [3, 5]: 103.8 % control | 4. Phagocytosis (% control) [4, 6]: 107.7 % control

COc1cc(/C=C/c2ccc(NC(=O)/C=C/c3cc(OC)c(OC)c(OC)c3)cc2)cc(OC)c1 [UNC10302905A]
1. Cell count (% control) ([1]; BV2 cells, 10 uM compound): 33.3 % control | 2. Nuclear Area (% Control) ([1]; BV2 cells, 10 uM compound): 95.8 % Control | 3. Nuclear DNA Intensity (% control) ([1]; BV2 cells, 10 uM compound): 130.4 % control | 1. Cell count (% control) ([2]; HMC3 cells, 10 uM compound): 87.3 % control | 2. Nuclear Area (% Control) ([2]; HMC3 cells, 10 uM compound): 107.2 % Control | 3. Nuclear DNA Intensity (% control) ([2]; HMC3 cells, 10 uM compound): 109.8 % control | 4. Phagocytosis (% control) [3, 5]: 64.0 % control | 4. Phagocytosis (% control) [4, 6]: 65.4 % control

O=C(NC1CCNCC1)c1[nH]ncc1NC(=O)c1c(Cl)cccc1Cl [UNC10302839A]
1. Cell count (% control) ([1]; BV2, compound 10 uM): 4.8 % control | 2. Nuclear Area (% Control) ([1]; BV2, compound 10 uM): 121.7 % Control | 3. Nuclear DNA Intensity (% control) ([1]; BV2, compound 10 uM): 82.5 % control | 1. Cell count (% control) ([2]; HMC3, compound 10 uM): 70.4 % control | 2. Nuclear Area (% Control) ([2]; HMC3, compound 10 uM): 131.0 % Control | 3. Nuclear DNA Intensity (% control) ([2]; HMC3, compound 10 uM): 97.4 % control | 4. Phagocytosis (% control) [3, 7]: 18.2 % control | 4. Phagocytosis (% control) [4, 8]: 183.7 % control

CCN(CC)Cc1ccc(C(=O)N(CCc2ccccc2OC)[C@@H]2CCNC2)cc1.Cl.Cl [UNC10302833A]
1. Cell count (% control) ([1]; BV2 cells, 10 uM compound): 70.3 % control | 2. Nuclear Area (% Control) ([1]; BV2 cells, 10 uM compound): 106.1 % Control | 3. Nuclear DNA Intensity (% control) ([1]; BV2 cells, 10 uM compound): 102.7 % control | 1. Cell count (% control) ([2]; HMC3 cells, 10 uM compound): 76.9 % control | 2. Nuclear Area (% Control) ([2]; HMC3 cells, 10 uM compound): 96.9 % Control | 3. Nuclear DNA Intensity (% control) ([2]; HMC3 cells, 10 uM compound): 107.9 % control | 4. Phagocytosis (% control) [3, 5]: 210.8 % control | 4. Phagocytosis (% control) [4, 6]: 38.5 % control
